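Interpolation was linear, between the two tested concentrations surrounding the appropriate level; five concentrations were tested over 48 hours in 96-well plates. GI50 is the concentration that inhibits growth by half. The concentration for full growth arrest is given as TGI.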
How the values were obtained:
Assay in all cases: growth of human tumour cells (NCI), 48 h
[1] = system: BT-549 breast
[2] = system: NCI-H522 lung
[3] = system: OVCAR-4 ovarian
[4] = system: SK-MEL-28 melanoma
[5] = system: RXF 393 renal
[6] = system: T-47D breast
[7] = system: MALME-3M melanoma
[8] = system: OVCAR-5 ovarian
[9] = system: ACHN renal
[10] = system: MDA-MB-435
[11] = system: CAKI-1 renal
[12] = system: NCI-H226 lung
[13] = system: MDA-MB-231 breast
[14] = system: HOP-62 NSCLC
[15] = system: 786-0 renal
[16] = system: UACC-62 melanoma
[17] = system: HOP-92 NSCLC
[18] = system: OVCAR-8 ovarian
[19] = system: IGROV1 ovarian
[20] = system: MCF7 breast
[21] = system: SK-MEL-5 melanoma
[22] = system: DU-145 prostate
[23] = system: LOX IMVI melanoma
[24] = system: SF-539 CNS
[25] = system: UACC-257 melanoma
[26] = system: UO-31 renal
[27] = system: NCI-H460 lung
[28] = system: PC-3 prostate
[29] = system: HCT-116 colon
[30] = system: NCI-H23 lung
[31] = system: HCC-2998 colon
[32] = system: COLO 205 colon
[33] = system: TK-10 renal
[34] = system: OVCAR-3 ovarian
[35] = system: SN12C renal
[36] = system: M14 melanoma
[37] = system: CCRF-CEM leukemia
[38] = system: KM12 colon
[39] = system: SK-OV-3 ovarian
[40] = system: HL-60(TB) leukemia
[41] = system: SW-620 colon
[42] = system: U251 CNS
[43] = system: A549 NSCLC
[44] = system: SK-MEL-2 melanoma
[45] = system: SNB-19 CNS
[46] = system: HCT-15 colon
[47] = system: SF-295 CNS
[48] = system: K-562 leukemia
[49] = system: SF-268 CNS
[50] = system: HS 578T breast
[51] = system: SNB-75 CNS
[52] = system: SR leukemia
[53] = system: HT29 colon
[54] = system: MOLT-4 leukemia
[55] = system: NCI/ADR-RES ovarian
[56] = system: RPMI-8226 leukemia
[57] = system: A498 renal
[58] = system: EKVX NSCLC

Cc1ccc(C(=O)N2C/C(=C/c3ccccc3)C(=O)/C(=C/c3ccccc3)C2)cc1
GI50 [1]: 3.42 µM | TGI [1]: 15.8 µM | GI50 [2]: 11.6 µM | TGI [2]: > 56 µM | GI50 [3]: 16.5 µM | TGI [3]: > 100 µM | GI50 [4]: 8.98 µM | TGI [4]: 68.9 µM | GI50 [5]: 2.2 µM | TGI [5]: 6.39 µM | GI50 [6]: 15.6 µM | TGI [6]: > 100 µM | GI50 [7]: 30.6 µM | TGI [7]: > 100 µM | GI50 [8]: > 75.5 µM | TGI [8]: > 100 µM | GI50 [9]: 5.04 µM | TGI [9]: > 67.1 µM | GI50 [10]: 1.01 µM | TGI [10]: 6.41 µM | GI50 [11]: > 57.5 µM | TGI [11]: > 100 µM | TGI [12]: > 100 µM | GI50 [13]: 4.61 µM | TGI [13]: > 77.2 µM | GI50 [14]: 4.96 µM | TGI [14]: 61.3 µM | GI50 [15]: 3.52 µM | TGI [15]: 15.2 µM | GI50 [16]: 4.49 µM | TGI [16]: 25.8 µM | GI50 [17]: 10.7 µM | TGI [17]: > 100 µM | GI50 [18]: 5.09 µM | TGI [18]: > 100 µM | GI50 [19]: 12.8 µM | TGI [19]: > 100 µM | GI50 [20]: 0.387 µM | TGI [20]: > 41.9 µM | GI50 [21]: 3.3 µM | TGI [21]: > 31.6 µM | GI50 [22]: 17.8 µM | TGI [22]: > 100 µM | GI50 [23]: 1.16 µM | TGI [23]: 3.08 µM | GI50 [24]: 9.66 µM | TGI [24]: 72.2 µM | GI50 [25]: 10.1 µM | TGI [25]: > 100 µM | GI50 [26]: 10.2 µM | TGI [26]: > 100 µM | GI50 [27]: 31 µM | TGI [27]: > 100 µM | GI50 [28]: 6.08 µM | TGI [28]: > 100 µM | GI50 [29]: 0.226 µM | TGI [29]: 0.548 µM | GI50 [30]: 8.86 µM | TGI [30]: > 100 µM | GI50 [31]: 3.08 µM | TGI [31]: 8.67 µM | GI50 [32]: 8.7 µM | TGI [32]: > 100 µM | GI50 [33]: 20.8 µM | TGI [33]: 90 µM | GI50 [34]: 6.8 µM | TGI [34]: > 100 µM | GI50 [35]: 7.34 µM | TGI [35]: > 100 µM | GI50 [36]: 3.85 µM | TGI [36]: > 92.1 µM | GI50 [37]: 2.23 µM | TGI [37]: > 100 µM | GI50 [38]: 1.43 µM | TGI [38]: 6.94 µM | GI50 [39]: 8.64 µM | TGI [39]: > 100 µM | GI50 [40]: 18.8 µM | TGI [40]: > 100 µM | GI50 [41]: 2.94 µM | TGI [41]: > 59.3 µM | GI50 [42]: 3.28 µM | TGI [42]: > 100 µM | GI50 [43]: 63.3 µM | TGI [43]: > 100 µM | GI50 [44]: > 62.8 µM | TGI [44]: > 100 µM | GI50 [45]: 9.51 µM | TGI [45]: > 100 µM | GI50 [46]: 3.13 µM | TGI [46]: > 100 µM | GI50 [47]: 5.36 µM | TGI [47]: > 100 µM | GI50 [48]: 1.66 µM | TGI [48]: > 100 µM | GI50 [49]: 10.8 µM | TGI [49]: > 100 µM | GI50 [50]: 4.48 µM | TGI [50]: 50.7 µM | GI50 [51]: 2.58 µM | TGI [51]: 16.4 µM | GI50 [52]: 0.461 µM | TGI [52]: 9.09 µM | GI50 [53]: 2.03 µM | TGI [53]: 7 µM | GI50 [54]: 4.98 µM | TGI [54]: > 100 µM | GI50 [55]: 27.7 µM | TGI [55]: > 100 µM | GI50 [56]: 0.131 µM | TGI [56]: 0.971 µM | GI50 [57]: > 65 µM | TGI [57]: > 100 µM

CCOC(=O)C1=C(C)N(CC(C)C)C2(O)C(OC)CC(=O)C3C(=O)N(c4ccccc4)C(=O)C132 (configuration not stated)
TGI [1]: > 100 µM | TGI [2]: 34.5 µM | TGI [3]: > 100 µM | TGI [4]: 70.1 µM | TGI [5]: 54.5 µM | TGI [6]: > 100 µM | TGI [7]: 96.7 µM | TGI [8]: > 100 µM | TGI [9]: 72 µM | TGI [10]: > 100 µM | TGI [11]: 98.7 µM | TGI [12]: 57.7 µM | TGI [13]: > 100 µM | TGI [14]: > 100 µM | TGI [15]: > 100 µM | TGI [16]: 47.6 µM | TGI [17]: > 100 µM | TGI [18]: 59.6 µM | TGI [19]: 40.2 µM | TGI [20]: > 100 µM | TGI [21]: 43.9 µM | TGI [22]: > 100 µM | TGI [23]: > 100 µM | TGI [24]: > 100 µM | TGI [25]: > 100 µM | TGI [26]: 39.2 µM | TGI [27]: > 100 µM | TGI [28]: > 100 µM | TGI [29]: > 100 µM | TGI [30]: > 100 µM | TGI [31]: 53.8 µM | TGI [32]: > 100 µM | TGI [33]: > 100 µM | TGI [34]: > 100 µM | TGI [35]: > 100 µM | TGI [36]: > 100 µM | TGI [37]: > 100 µM | TGI [38]: 90 µM | TGI [40]: 69.2 µM | TGI [41]: 77.9 µM | TGI [42]: > 100 µM | TGI [43]: > 100 µM | TGI [44]: 51.1 µM | TGI [45]: > 100 µM | TGI [46]: > 100 µM | TGI [47]: > 100 µM | TGI [48]: > 100 µM | TGI [58]: > 100 µM | TGI [49]: > 100 µM | TGI [50]: > 100 µM | TGI [51]: 75.4 µM | TGI [52]: 49.9 µM | TGI [53]: 57.1 µM | TGI [54]: 75.6 µM | TGI [55]: > 100 µM | TGI [56]: > 100 µM | TGI [57]: > 100 µM

O=C(O)Cc1ccc(Oc2nc3ccccc3nc2-c2ccccc2)cc1
TGI [1]: > 100 µM | TGI [2]: > 100 µM | TGI [3]: > 100 µM | TGI [4]: > 100 µM | TGI [5]: 98.2 µM | TGI [6]: > 100 µM | TGI [7]: > 100 µM | TGI [8]: > 100 µM | TGI [9]: > 100 µM | TGI [10]: > 100 µM | TGI [11]: > 100 µM | TGI [12]: > 100 µM | TGI [13]: > 100 µM | TGI [14]: > 100 µM | TGI [15]: > 100 µM | TGI [16]: 75.7 µM | TGI [18]: > 100 µM | TGI [19]: > 100 µM | TGI [20]: > 100 µM | TGI [21]: > 100 µM | TGI [22]: > 100 µM | TGI [23]: > 100 µM | TGI [24]: > 100 µM | TGI [25]: > 100 µM | TGI [26]: > 100 µM | TGI [27]: > 100 µM | TGI [28]: > 100 µM | TGI [29]: > 100 µM | TGI [30]: > 100 µM | TGI [31]: 99.5 µM | TGI [32]: > 100 µM | TGI [33]: > 100 µM | TGI [34]: 65.6 µM | TGI [35]: > 100 µM | TGI [36]: > 100 µM | TGI [37]: > 100 µM | TGI [38]: > 100 µM | TGI [39]: > 100 µM | TGI [40]: > 100 µM | TGI [41]: > 100 µM | TGI [42]: > 100 µM | TGI [43]: > 100 µM | TGI [44]: > 100 µM | TGI [45]: > 100 µM | TGI [46]: > 100 µM | TGI [47]: > 100 µM | TGI [48]: > 100 µM | TGI [58]: 79.5 µM | TGI [49]: > 100 µM | TGI [50]: > 100 µM | TGI [51]: > 100 µM | TGI [52]: > 100 µM | TGI [53]: > 100 µM | TGI [54]: > 100 µM | TGI [55]: > 100 µM | TGI [56]: > 100 µM | TGI [57]: > 100 µM
